Test results reported in patent publication US8802711B2, “TRPV1 antagonists” (AbbVie Inc., priority 2011, dated 2014).

Assays:
[1] = target: T1, human TRPV1 receptor (hTRPV1) (Homo sapiens (Human), UniProt Q8NER1); experiment: Capsaicin activation assay (FLIPR intracellular Ca2+); assay type: cell-based; conditions: Table 1; inhibition of capsaicin-induced intracellular Ca2+ increase, HEK293 cells expressing human TRPV1; read-out: hTRPV1 cap IC50
How it was run: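 Antagonism measured as [Ca2+]i fluorescence on FLIPR Tetra: compounds given 3 min ahead of capsaicin, added as 200 nM (4×), to dye-loaded hTRPV1-HEK293 cells. Response taken as baseline-subtracted peak, normalized to the 50 nM capsaicin control; 12-point one-third-log titrations.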

[2] = target: T1, human TRPV1 receptor (hTRPV1); experiment: Acid activation assay (pH 5.0, FLIPR intracellular Ca2+); assay type: cell-based; conditions: Table 1, 37.5 μM antagonist, percentage of the maximal pH 5.0-induced response remaining; for remaining activity at 37.5 µM: read-out: hTRPV1 H+ (max % remain)
How it was run: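 Antagonism of acid-evoked Ca2+ influx measured by FLIPR Calcium-4 fluorescence after a pH 5.0 DPBS/MES stimulus, with compounds preincubated 3 min over 12 half-log concentrations. Cells: stable hTRPV1-expressing 1321N1 line, dye-loaded 90–120 min in the dark at 25 °C.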

T1 sequence (Q8NER1 whole entry): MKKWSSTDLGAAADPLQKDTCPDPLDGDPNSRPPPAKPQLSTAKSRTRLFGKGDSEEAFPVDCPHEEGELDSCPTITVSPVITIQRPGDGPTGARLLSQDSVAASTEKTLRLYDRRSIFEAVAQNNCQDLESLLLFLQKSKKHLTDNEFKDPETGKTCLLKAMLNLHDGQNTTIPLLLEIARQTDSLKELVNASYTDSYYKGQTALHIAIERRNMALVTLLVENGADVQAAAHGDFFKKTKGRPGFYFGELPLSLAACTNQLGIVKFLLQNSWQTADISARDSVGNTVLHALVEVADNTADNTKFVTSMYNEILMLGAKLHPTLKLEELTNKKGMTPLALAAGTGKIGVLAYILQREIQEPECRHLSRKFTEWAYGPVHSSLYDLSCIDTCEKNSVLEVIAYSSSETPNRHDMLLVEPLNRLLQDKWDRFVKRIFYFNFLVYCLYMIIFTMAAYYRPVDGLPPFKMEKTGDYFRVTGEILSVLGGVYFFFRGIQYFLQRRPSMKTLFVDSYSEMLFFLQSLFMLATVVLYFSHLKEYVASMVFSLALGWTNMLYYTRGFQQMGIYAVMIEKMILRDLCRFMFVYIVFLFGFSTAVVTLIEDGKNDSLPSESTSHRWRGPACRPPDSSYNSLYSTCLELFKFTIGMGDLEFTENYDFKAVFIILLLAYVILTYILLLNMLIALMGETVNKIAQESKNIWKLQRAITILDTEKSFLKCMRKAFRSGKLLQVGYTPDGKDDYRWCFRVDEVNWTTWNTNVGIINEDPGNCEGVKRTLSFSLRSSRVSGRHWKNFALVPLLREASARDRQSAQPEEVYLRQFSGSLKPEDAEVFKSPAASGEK

SMILES | IC50 [1] [nM] | remaining activity at 37.5 µM [2] [%] | hTRPV1 H+ (max % remain) [2] [%]
CN1C(=O)CCc2c(NC(=O)N[C@H]3CC[C@@H](c4ccccc4)C3)cccc21 [Example 95, 1-(1-methyl-2-oxo-1,2,3,4-tetrahydroquinolin-5-yl)-3-[(1S,3R)-3-phenylcyclopentyl]urea] | 58 | 34 | –
CN1C(=O)CCc2c(NC(=O)N[C@@H]3CC[C@@H](c4cccc(F)c4)C3)cccc21 [Example 97, 1-[(1R,3R)-3-(3-fluorophenyl)cyclopentyl]-3-(1-methyl-2-oxo-1,2,3,4-tetrahydroquinolin-5-yl)urea] | 69 | 46 | –
CN1C(=O)CCc2c(NC(=O)N[C@H]3CC[C@@H](c4cccc(F)c4)C3)cccc21 [Example 98, 1-[(1S,3R)-3-(3-fluorophenyl)cyclopentyl]-3-(1-methyl-2-oxo-1,2,3,4-tetrahydroquinolin-5-yl)urea] | 54 | 32 | –
CN1C(=O)CCc2c(NC(=O)N[C@@H]3CC[C@@H](c4ccccc4F)C3)cccc21 [Example 99, 1-[(1R,3R)-3-(2-fluorophenyl)cyclopentyl]-3-(1-methyl-2-oxo-1,2,3,4-tetrahydroquinolin-5-yl)urea] | 16 | 46 | –
CN1C(=O)CCc2c(NC(=O)N[C@H]3CC[C@@H](c4ccccc4F)C3)cccc21 [Example 100, 1-[(1S,3R)-3-(2-fluorophenyl)cyclopentyl]-3-(1-methyl-2-oxo-1,2,3,4-tetrahydroquinolin-5-yl)urea] | 25 | 43 | –
Cn1ncc2c(NC(=O)N[C@@H]3CC[C@@H](c4cccc(F)c4)C3)cccc21 [Example 101, 1-[(1R,3R)-3-(3-fluorophenyl)cyclopentyl]-3-(1-methyl-420-1-21H-indazol-4-yl)urea] | 25 | – | 4
Cn1ncc2c(NC(=O)N[C@H]3CC[C@@H](c4cccc(F)c4)C3)cccc21 [Example 102, 1-[(1S,3R)-3-(3-fluorophenyl)cyclopentyl]-3-(1-methyl-1H-indazol-4-yl)urea] | 218 | 34 | –
Cn1ncc2c(NC(=O)N[C@@H]3CC[C@@H](c4ccccc4F)C3)cccc21 [Example 103, 1-[(1R,3R)-3-(2-fluorophenyl)cyclopentyl]-3-(1-methyl-1H-indazol-4-yl)urea] | 14 | 19 | –
Cn1ncc2c(NC(=O)N[C@H]3CC[C@@H](c4ccccc4F)C3)cccc21 [Example 104, 1-[(1S,3R)-3-(2-fluorophenyl)cyclopentyl]-3-(1-methyl-1H-indazol-4-yl)urea] | 97 | 42 | –
CN1C(=O)CCc2ccc(NC(=O)N[C@H]3CC[C@@H](c4ccccc4)C3)cc21 [Example 105, 1-(1-methyl-2-oxo-1,2,3,4-tetrahydroquinolin-7-yl)-3-[(1S,3R)-3-phenylcyclopentyl]urea] | 956 | 91 | –
CN1C(=O)CCc2ccc(NC(=O)N[C@H]3CC[C@H](c4ccccc4)C3)cc21 [Example 106, 1-(1-methyl-2-oxo-1,2,3,4-tetrahydroquinolin-7-yl)-3-[(1S,3S)-3-phenylcyclopentyl]urea] | > 37500 | 75 | –
CN1C(=O)CCc2ccc(NC(=O)N[C@@H]3CC[C@@H](c4cccc(F)c4)C3)cc21 [Example 107, 1-[(1R,3R)-3-(3-fluorophenyl)cyclopentyl]-3-(1-methyl-2-oxo-1,2,3,4-tetrahydroquinolin-7-yl)urea] | > 37500 | 77 | –
CN1C(=O)CCc2ccc(NC(=O)N[C@H]3CC[C@@H](c4cccc(F)c4)C3)cc21 [Example 108, 1-[(1S,3R)-3-(3-fluorophenyl)cyclopentyl]-3-(1-methyl-2-oxo-1,2,3,4-tetrahydroquinolin-7-yl)urea] | 804 | 88 | –
CN1C(=O)CCc2ccc(NC(=O)N[C@@H]3CC[C@@H](c4ccccc4F)C3)cc21 [Example 109, 1-[(1R,3R)-3-(2-fluorophenyl)cyclopentyl]-3-(1-methyl-2-oxo-1,2,3,4-tetrahydroquinolin-7-yl)urea] | > 37500 | 76 | –
CN1C(=O)CCc2ccc(NC(=O)N[C@H]3CC[C@@H](c4ccccc4F)C3)cc21 [Example 110, 1-[(1S,3R)-3-(2-fluorophenyl)cyclopentyl]-3-(1-methyl-2-oxo-1,2,3,4-tetrahydroquinolin-7-yl)urea] | > 37500 | 72 | –
O=C(Nc1cccc2c1CCC2)N[C@@H]1CC[C@H](c2ccccc2)C1 [Example 111, 1-(2,3-dihydro-1H-inden-4-yl)-3-[(1R,3S)-3-phenylcyclopentyl]urea] | 362 | 32 | –
O=C(Nc1cccc2c1CCC2)N[C@H]1CC[C@H](c2ccccc2)C1 [Example 112, 1-(2,3-dihydro-1H-inden-4-yl)-3-[(1S,3S)-3-phenylcyclopentyl]urea] | 1370 | 35 | –
O=C(Nc1ccc2c(c1)NC(=O)N(CCO)C2)N[C@H]1CC[C@@H](c2ccccc2)C1 [Example 113, 1-[3-(2-hydroxyethyl)-2-oxo-1,2,3,4-tetrahydroquinazolin-7-yl]-3-[(1S,3R)-3-phenylcyclopentyl]urea] | 7700 | 50 | –

More lines, now with the values ahead:

IC50 [1] [nM] | remaining activity at 37.5 µM [2] [%] | hTRPV1 H+ (max % remain) [2] [%] | SMILES
830 | 62 | – | O=C(Nc1ccc2c(c1)NC(=O)N(CCO)C2)N[C@H]1CC[C@H](c2ccccc2)C1 [Example 114, 1-[3-(2-hydroxyethyl)-2-oxo-1,2,3,4-tetrahydroquinazolin-7-yl]-3-[(1S,3S)-3-phenylcyclopentyl]urea]
653 | 47 | – | O=C(Nc1ccc2c(c1)NC(=O)N(CCO)C2)N[C@@H]1CC[C@@H](c2cccc(F)c2)C1 [Example 115, 1-[(1R,3R)-3-(3-fluorophenyl)cyclopentyl]-3-[3-(2-hydroxyethyl)-2-oxo-1,2,3,4-tetrahydroquinazolin-7-yl]urea]
930 | 48 | – | O=C(Nc1ccc2c(c1)NC(=O)N(CCO)C2)N[C@H]1CC[C@@H](c2cccc(F)c2)C1 [Example 116, 1-[(1S,3R)-3-(3-fluorophenyl)cyclopentyl]-3-[3-(2-hydroxyethyl)-2-oxo-1,2,3,4-tetrahydroquinazolin-7-yl]urea]
804 | 47 | – | O=C(Nc1ccc2c(c1)NC(=O)N(CCO)C2)N[C@H]1CC[C@@H](c2ccccc2F)C1 [Example 117, 1-[(1S,3R)-3-(2-fluorophenyl)cyclopentyl]-3-[3-(2-hydroxyethyl)-2-oxo-1,2,3,4-tetrahydroquinazolin-7-yl]urea]
> 37500 | 50 | – | Cn1c(=O)ccc2c(NC(=O)N[C@H]3CC[C@H](c4ccccc4)C3)cccc21 [Example 118, 1-(1-methyl-2-oxo-1,2-dihydroquinolin-5-yl)-3-[(1S,3S)-3-phenylcyclopentyl]urea]
6480 | 50 | – | O=C(Nc1cccc2c1CCC2)N[C@H]1CC[C@@H](c2ccccc2)C1 [Example 124, 1-(2,3-dihydro-1H-inden-4-yl)-3-[(1S,3R)-3-phenylcyclopentyl]urea]
324 | 40 | – | Cc1cc2c(NC(=O)N[C@@H]3CC[C@H](c4nc(C)cs4)C3)c(F)ccc2cn1 [Example 132, 1-(6-fluoro-3-methylisoquinolin-5-yl)-3-[(1R,3S)-3-(4-methyl-1,3-thiazol-2-yl)cyclopentyl]urea]
507 | 16 | – | Cc1cc2c(NC(=O)N[C@@H]3CC[C@@H](c4nc(C)cs4)C3)c(F)ccc2cn1 [Example 133, 1-(6-fluoro-3-methylisoquinolin-5-yl)-3-[(1R,3R)-3-(4-methyl-1,3-thiazol-2-yl)cyclopentyl]urea]
156 | 36 | – | Cc1cc2c(NC(=O)N[C@H]3CC[C@H](c4nc(C)cs4)C3)c(F)ccc2cn1 [Example 134, 1-(6-fluoro-3-methylisoquinolin-5-yl)-3-[(1S,3S)-3-(4-methyl-1,3-thiazol-2-yl)cyclopentyl]urea]
1790 | 57 | – | Cc1cc2c(NC(=O)N[C@H]3CC[C@@H](c4nc(C)cs4)C3)c(F)ccc2cn1 [Example 135, 1-(6-fluoro-3-methylisoquinolin-5-yl)-3-[(1S,3R)-3-(4-methyl-1,3-thiazol-2-yl)cyclopentyl]urea]
> 37500 | 46 | – | O=C(Nc1cccc2c(Cl)nccc12)N[C@@H]1CC[C@H](c2ccccc2)C1 [Example 136, 1-(1-chloroisoquinolin-5-yl)-3-[(1R,3S)-3-phenylcyclopentyl]urea]
100 | 42 | – | O=C(Nc1cccc2[nH]ccc12)N[C@@H]1CC[C@H](c2ccccc2)C1 [Example 137, 1-(1H-indol-4-yl)-3-[(1R,3S)-3-phenylcyclopentyl]urea]
156 | 0 | – | O=C(Nc1cccc2c1CCCC2)N[C@@H]1CC[C@H](c2ccccc2)C1 [Example 138, 1-[(1R,3S)-3-phenylcyclopentyl]-3-(5,6,7,8-tetrahydronaphthalen-1-yl)urea]
> 37500 | 89 | – | CC(C)Cc1cc2c(NC(=O)N[C@@H]3CC[C@H](c4ccccc4)C3)c(F)ccc2cn1 [Example 139, 1-[6-fluoro-3-(2-methylpropyl)isoquinolin-5-yl]-3-[(1R,3S)-3-phenylcyclopentyl]urea]
